Laboratory results: patent US20100168102A9, “Amide Derivatives as Kinase Inhibitors” (Devgen NV, priority 2005, published 2010)

Columns and labels:
human ROCKα/ROCKII mix = target: T1, human ROCKα/ROCKII mix (Homo sapiens, UniProt O75116); assay: Biochemical assay for ROCK (fluorescence polarization, ROCK IMAP Kit)
T1 construct: purchased Upstate Biotechnology 14-451

PKC epsilon = target: T2, PKC epsilon (Homo sapiens, UniProt Q02156); assay: Biochemical assay for PKC epsilon (fluorescence polarization, Protein Kinase C Assay Kit, Red); conditions: read-out: IC50 μM PKCε
T2 construct: purchased Invitrogen P2282
T2 sequence (Q02156 1-737): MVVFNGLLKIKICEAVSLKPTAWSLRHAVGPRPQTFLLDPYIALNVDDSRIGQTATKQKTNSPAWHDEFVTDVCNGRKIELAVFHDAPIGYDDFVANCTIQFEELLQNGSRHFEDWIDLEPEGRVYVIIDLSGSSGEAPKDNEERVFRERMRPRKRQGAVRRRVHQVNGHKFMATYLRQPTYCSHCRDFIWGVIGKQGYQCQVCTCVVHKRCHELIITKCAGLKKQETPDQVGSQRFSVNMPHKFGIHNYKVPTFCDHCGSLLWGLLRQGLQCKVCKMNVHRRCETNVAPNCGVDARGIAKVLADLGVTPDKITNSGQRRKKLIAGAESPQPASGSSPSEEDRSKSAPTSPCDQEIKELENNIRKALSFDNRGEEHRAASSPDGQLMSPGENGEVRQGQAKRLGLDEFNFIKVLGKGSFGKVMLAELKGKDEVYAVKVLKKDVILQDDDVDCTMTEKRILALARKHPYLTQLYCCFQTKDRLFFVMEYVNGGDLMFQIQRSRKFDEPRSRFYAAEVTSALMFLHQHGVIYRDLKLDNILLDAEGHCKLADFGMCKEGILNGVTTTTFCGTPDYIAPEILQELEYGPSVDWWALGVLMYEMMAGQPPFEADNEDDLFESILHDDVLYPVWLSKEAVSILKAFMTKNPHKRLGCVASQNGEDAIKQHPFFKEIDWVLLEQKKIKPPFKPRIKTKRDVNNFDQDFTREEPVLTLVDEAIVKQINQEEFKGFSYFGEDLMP
Summary of the method: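 PKC epsilon at 10 ng/ml final was preincubated 30 min at room temperature with compound in HEPES pH 7.4 with DTT and Triton X-100. ATP/protein substrate was then added in buffer with MgCl2 and CaCl2 for 80 min. The reaction was stopped with EDTA, phosphorylation was detected by fluorescence polarization with rhodamine tracer and anti-phosphoserine antibody, and IC50 values came from curve fits.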

T1 sequence (O75116 11-552 limits assumed): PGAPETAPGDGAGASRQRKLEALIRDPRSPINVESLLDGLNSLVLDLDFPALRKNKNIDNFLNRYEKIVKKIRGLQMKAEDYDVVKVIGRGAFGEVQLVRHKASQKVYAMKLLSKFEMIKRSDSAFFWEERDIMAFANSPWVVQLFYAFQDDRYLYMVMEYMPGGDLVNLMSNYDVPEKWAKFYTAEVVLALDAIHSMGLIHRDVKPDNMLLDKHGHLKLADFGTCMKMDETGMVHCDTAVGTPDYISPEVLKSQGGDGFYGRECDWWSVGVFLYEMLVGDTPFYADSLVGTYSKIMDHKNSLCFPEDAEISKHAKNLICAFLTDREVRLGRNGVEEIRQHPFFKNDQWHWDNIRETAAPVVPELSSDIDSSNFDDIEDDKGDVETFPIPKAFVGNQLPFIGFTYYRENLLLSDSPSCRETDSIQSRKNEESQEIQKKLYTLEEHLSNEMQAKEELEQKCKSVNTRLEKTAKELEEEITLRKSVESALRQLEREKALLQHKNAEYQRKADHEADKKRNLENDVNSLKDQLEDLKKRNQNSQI

Row | Compound | IC50 (human ROCKα/ROCKII mix) | IC50 (PKC epsilon)
1 | NC(c1ccc(C(=O)Nc2ccncc2)cc1)C1CCCN1C(=O)Cc1c(Cl)cccc1Cl (centres unmarked) [Compound 590, 4-(Amino-{1-[2-(2,6-dichloro-phenyl)-acetyl]-pyrrolidin-2-yl}-methyl)-N-pyridin-4-yl-benzamide] | 0.5 to 5 µM | 5 to 50 µM
2 | NC(c1ccc(C(=O)Nc2ccncc2)cc1)C1CCCN1C(=O)Cc1ccc(Cl)cc1Cl (centres unmarked) [Compound 591, 4-(Amino-{1-[2-(2,4-dichloro-phenyl)-acetyl]-pyrrolidin-2-yl}-methyl)-N-pyridin-4-yl-benzamide] | 0.5 to 5 µM | 5 to 50 µM
3 | NC(c1ccc(C(=O)Nc2ccncc2)cc1)C1CCCN1C(=O)Cc1ccc(Cl)c(Cl)c1 (centres unmarked) [Compound 592, 4-(Amino-{1-[2-(3,4-dichloro-phenyl)-acetyl]-pyrrolidin-2-yl}-methyl)-N-pyridin-4-yl-benzamide] | 0.5 to 5 µM | 0.5 to 5 µM
4 | CC(C)(C(=O)N1CCCC1C(N)c1ccc(C(=O)Nc2ccncc2)cc1)c1ccc(Cl)c(Cl)c1 (centres unmarked) [Compound 593, 4-(Amino-{1-[2-(3,4-dichloro-phenyl)-2-methyl-propionyl]-pyrrolidin-2-yl}-methyl)-N-pyridin-4-yl-benzamide] | 0.5 to 5 µM | 5 to 50 µM
5 | NC(c1ccc(C(=O)Nc2ccncc2)cc1)C1CCCN1C(=O)C1(c2ccc(Cl)c(Cl)c2)CC1 (centres unmarked) [Compound 594, 4-(Amino-{1-[1-(3,4-dichloro-phenyl)-cyclopropanecarbonyl]-pyrrolidin-2-yl}-methyl)-N-pyridin-4-yl-benzamide] | 0.5 to 5 µM | 0.5 to 5 µM
6 | NC(c1ccc(C(=O)Nc2ccncc2)cc1)C1CCCN1C(=O)C1(c2ccc(Cl)c(Cl)c2)CCC1 (centres unmarked) [Compound 595, 4-(Amino-{1-[1-(3,4-dichloro-phenyl)-cyclobutanecarbonyl]-pyrrolidin-2-yl}-methyl)-N-pyridin-4-yl-benzamide] | 0.5 to 5 µM | 0.5 to 5 µM
7 | NC(c1ccc(C(=O)Nc2ccncc2)cc1)C1CCCN1C(=O)C1(c2ccc(Cl)cc2Cl)CC1 (centres unmarked) [Compound 596, 4-(Amino-{1-[1-(2,4-dichloro-phenyl)-cyclopropanecarbonyl]-pyrrolidin-2-yl}-methyl)-N-pyridin-4-yl-benzamide] | 0.5 to 5 µM | 5 to 50 µM
8 | NC(c1ccc(C(=O)Nc2ccncc2)cc1)C1CCCN1C(=O)Cc1c(F)cccc1Cl (centres unmarked) [Compound 597, 4-(Amino-{1-[2-(2-chloro-6-fluoro-phenyl)-acetyl]-pyrrolidin-2-yl}-methyl)-N-pyridin-4-yl-benzamide] | 0.5 to 5 µM | 5 to 50 µM
9 | NC(c1ccc(C(=O)Nc2ccncc2)cc1)C1CCCN1C(=O)Cc1ccc(Cl)cc1F (centres unmarked) [Compound 598, 4-(Amino-{1-[2-(4-chloro-2-fluoro-phenyl)-acetyl]-pyrrolidin-2-yl}-methyl)-N-pyridin-4-yl-benzamide] | 0.5 to 5 µM | 5 to 50 µM
10 | NC(c1ccc(C(=O)Nc2ccncc2)cc1)C1CCCN1C(=O)Cc1ccc(F)cc1Cl (centres unmarked) [Compound 599, 4-(Amino-{1-[2-(2-chloro-4-fluoro-phenyl)-acetyl]-pyrrolidin-2-yl}-methyl)-N-pyridin-4-yl-benzamide] | 0.5 to 5 µM | 0.5 to 5 µM
11 | NC(c1ccc(C(=O)Nc2ccncc2)cc1)C1CCCN1C(=O)C1(c2ccc(F)cc2Cl)CC1 (centres unmarked) [Compound 600, 4-(Amino-{1-[1-(2-chloro-4-fluoro-phenyl)-cyclopropanecarbonyl]-pyrrolidin-2-yl}-methyl)-N-pyridin-4-yl-benzamide] | 0.5 to 5 µM | 0.5 to 5 µM
12 | NC(c1ccc(C(=O)Nc2ccncc2)cc1)C1CCCN1C(=O)Cc1cccc(Cl)c1F (centres unmarked) [Compound 602, 4-(Amino-{1-[2-(3-chloro-2-fluoro-phenyl)-acetyl]-pyrrolidin-2-yl}-methyl)-N-pyridin-4-yl-benzamide] | 0.5 to 5 µM | 5 to 50 µM
13 | NC(c1ccc(C(=O)Nc2ccncc2)cc1)C1CCCN1C(=O)Cc1ccc(F)c(Cl)c1 (centres unmarked) [Compound 603, 4-(Amino-{1-[2-(3-chloro-4-fluoro-phenyl)-acetyl]-pyrrolidin-2-yl}-methyl)-N-pyridin-4-yl-benzamide] | 0.05 to 0.5 µM | 0.5 to 5 µM
